From patent US4345938A, “Herbicidal 2-haloacetanilides” (Monsanto Company, priority 1980, dated 1982)
Read-outs that look alike come from different tables or passages of the source.

Experiments:
Format in all cases: in vivo
Sorghum = test: Pre-emergent herbicidal test, Sorghum; conditions: Table II; also: ranges in brackets are in %
Source text: (§1) A good grade of top soil is placed in aluminum pans and compacted to a depth of three-eights to one-half inch from the top of the pan. On the top of the soil is placed a number of seeds or vegetative propagules of various plant species. The soil required to level fill the pans after seeding or adding vegetative propagules is weighted into a pan. The soil and a known amount of the active ingredient applied in a solvent or as a wettable powder suspension are thoroughly mixed, and used to cover the prepared pans. After treatment, the pans are moved into a greenhouse bench where they are watered by subirrigation as needed to give adequate moisture for germination and growth.
(§2) Approximately 2 weeks after seeding and treating, the plants were observed and the results recorded. The herbicidal rating was obtained by means of a fixed scale based on the percent injury of each plant species. The ratings are defined as follows: […]
(§3) The compounds were further tested by utilizing the above procedure on the following plant species: […]

Quackgrass = test: Pre-emergent herbicidal test, Quackgrass; conditions: Table I; also: ranges in brackets are in %
Source text: as §1, §2

Barnyardgrass = test: Pre-emergent herbicidal test, Barnyardgrass; also: ranges in brackets are in %
Source text: as §1, §2

Yellow Nutsedge = test: Pre-emergent herbicidal test, Yellow Nutsedge; conditions: Table I; also: ranges in brackets are in %
Source text: as §1, §2

Monochoria vaginalis = test: Field transplant rice test, applied 0 DAT, MV; conditions: Pontederia vaginalis, 0 h, read-out: Percent Inhibition, MV; for inhibition at 375 g/ha: 0.375 Kg/Ha; for inhibition at 750 g/ha: 0.75 Kg/Ha; for inhibition at 1500 g/ha: 1.5 Kg/Ha; for inhibition at 3000 g/ha: 3.0 Kg/Ha
Description: (§4) The test data in Table III for all compounds was obtained under identical test conditions. The weeds used in the tests herein have the following abbreviations in the tables: Echinochloa crus-galli (EC), Monochloria vaginalis (MV), Cyperus Serotinus (CS), Eleocharis Kuroguwai (EK) and Sagittaria trifolia (ST).
(§5) In further comparative tests, a preferred compound of this invention (Example 1) was tested in the field with prior art Compounds A-D. These tests were conducted under conditions reflecting herbicide application times generally favorable to all herbicides in the test. The timing of application of herbicides to transplant rice is very important, whether, as in some instances, prior to transplanting the rice; in other instances, at the time of transplanting or else after transplanting. Application times are conventionally referred to as "days before transplant" (DBT) or "days after transplant" ("DAT"). The field test data in Table IV was obtained from a test in which the herbicides were applied at the time of transplant, i.e., "0 DAT", with observations being made weekly up to six weeks after transplant ("WAT") beginning at two weeks after transplant; for illustrative and representative purposes, only the early, middle and late period observations, i.e., 2 WAT, 4 WAT and 6 WAT, are shown in Table IV. The data in Table IV is for rates of application common to all herbicides in the test, i.e., from 3.0 kg/ha (2.67 lb/A) down to 0.375 kg/ha (0.34 lb/A). All herbicides were applied at their actual or expected use rates, i.e., as granules containing 2.5% by weight herbicide for the compound of Example 1, Compounds B, C and D and 5.0% by weight for Compound A.

Sagittaria trifolia [1] = test: Greenhouse transplant rice test, ST
Source text: (§6) The test procedure used in this greenhouse test is as follows: Ray silt loam top soil containing about 0.05% by weight of krillium and sifted through a […] screen is fumigated about 5-10 days prior to use. Pots are then filled with said Ray silt loam soil to a level to allow for a 1 in. (2.54 cm) flooding depth. Rice plants (Bluebelle) of 2 to 3 weeks age are transplanted to the pots and bulbs or seeds of the test weeds also planted in the pots. The pots are then flooded and the test chemical applied to the surface of the flood water. The flood water is reduced to allow for germination of the Echinochloa crus-galli (barnyardgrass) seed and subsequently reflooded and maintained in that condition. Observations of percent inhibition using a scale of 0-100% are made about 3 weeks after transplant (WAT).
as §4

Wild Buckwheat = test: Pre-emergent herbicidal test, Wild Buckwheat; conditions: Table II; also: ranges in brackets are in %
Source text: as §1, §2, §3

Sagittaria trifolia [2] = test: Field transplant rice test, applied 0 DAT, ST; conditions: 0 h, read-out: Percent Inhibition, ST; for inhibition at 375 g/ha: 0.375 Kg/Ha; for inhibition at 750 g/ha: 0.75 Kg/Ha; for inhibition at 1500 g/ha: 1.5 Kg/Ha; for inhibition at 3000 g/ha: 3.0 Kg/Ha
Description: as §4, §5

Downy Brome = test: Pre-emergent herbicidal test, Downy Brome; also: ranges in brackets are in %
Source text: as §1, §2

Lambsquarters = test: Pre-emergent herbicidal test, Lambsquarters; also: ranges in brackets are in %
Source text: as §1, §2

Cyperus serotinus = test: Greenhouse transplant rice test, CS; conditions: about 3 WAT, read-out: Percent Inhibition, CS
Source text: as §6, §4

Eleocharis kuroguwai = test: Greenhouse transplant rice test, EK; conditions: about 3 WAT, read-out: Percent Inhibition, EK
Source text: as §6, §4

For `CCCCOc1cccc(CC)c1N(C)C(=O)CCl` [Example 1, N-methyl-2'-n-butoxy-6'-ethyl-2-chloroacetanilide], the “Rating, Sorghum” value (Sorghum; 0.006 kg/h) was 0 (0-24), the “Rating, Sorghum” value (Sorghum; 0.01 kg/h) was 0 (0-24) and the “Rating, Sorghum” value (Sorghum; 0.06 kg/h) was 2 (50-74). For the same molecule, the “Rating, Sorghum” value (Sorghum; 0.28 kg/h) was 3 (75-100), the “Rating, Sorghum” value (Sorghum; 1.12 kg/h) was 3 (75-100) and the “Rating, Sorghum” value (Sorghum; 5.6 kg/h) was 3 (75-100). The “Rating, Quackgrass” value (Quackgrass; 5.6 kg/h) was 3 (75-100), the “Rating, Quackgrass” value (Quackgrass; 11.2 kg/h) was 3 (75-100) and the “Rating, Barnyardgrass” value (Barnyardgrass; Table I, 5.6 kg/h) was 3 (75-100). For the same molecule, the “Rating, Barnyardgrass” value (Barnyardgrass; Table I, 11.2 kg/h) was 3 (75-100), the “Rating, Barnyardgrass” value (Barnyardgrass; Table II, 0.006 kg/h) was 1 (25-49) and the “Rating, Barnyardgrass” value (Barnyardgrass; Table II, 0.01 kg/h) was 2 (50-74). The “Rating, Barnyardgrass” value (Barnyardgrass; Table II, 0.06 kg/h) was 3 (75-100), the “Rating, Barnyardgrass” value (Barnyardgrass; Table II, 0.28 kg/h) was 3 (75-100) and the “Rating, Barnyardgrass” value (Barnyardgrass; Table II, 1.12 kg/h) was 3 (75-100). The “Rating, Barnyardgrass” value (Barnyardgrass; Table II, 5.6 kg/h) was 3 (75-100), the “Rating, Yellow Nutsedge” value (Yellow Nutsedge; 5.6 kg/h) was 3 (75-100) and the “Rating, Yellow Nutsedge” value (Yellow Nutsedge; 11.2 kg/h) was 3 (75-100). For the same molecule, the inhibition at 375 g/ha (Monochoria vaginalis; 2 WAT) was 98%, the inhibition at 375 g/ha (Monochoria vaginalis; 4 WAT) was 100% and the inhibition at 375 g/ha (Monochoria vaginalis; 6 WAT) was 93%. The inhibition at 750 g/ha (Monochoria vaginalis; 2 WAT) was 100%, the inhibition at 750 g/ha (Monochoria vaginalis; 4 WAT) was 99% and the inhibition at 750 g/ha (Monochoria vaginalis; 6 WAT) was 97%. For the same molecule, the inhibition at 1500 g/ha (Monochoria vaginalis; 2 WAT) was 100%, the inhibition at 1500 g/ha (Monochoria vaginalis; 4 WAT) was 100% and the inhibition at 1500 g/ha (Monochoria vaginalis; 6 WAT) was 100%. It also gave an inhibition at 3000 g/ha (Monochoria vaginalis; 2 WAT) of 100%, an inhibition at 3000 g/ha (Monochoria vaginalis; 4 WAT) of 100% and an inhibition at 3000 g/ha (Monochoria vaginalis; 6 WAT) of 100%. The “selective control of ST in rice” value (Sagittaria trifolia [1]; 0.56 kg/ha) was “positive selective control”, the inhibition at 280 g/ha (Sagittaria trifolia [1]; Sagittaria trifolia, 0.28 Kg/Ha, about 3 WAT, read-out: Percent Inhibition, ST) was 75% and the inhibition at 560 g/ha (Sagittaria trifolia [1]; Sagittaria trifolia, 0.56 Kg/Ha, about 3 WAT, read-out: Percent Inhibition, ST) was 85%. For the same molecule, the inhibition at 1120 g/ha (Sagittaria trifolia [1]; Sagittaria trifolia, 1.12 Kg/Ha, about 3 WAT, read-out: Percent Inhibition, ST) was 85%, the inhibition at 2240 g/ha (Sagittaria trifolia [1]; Sagittaria trifolia, 2.24 Kg/Ha, about 3 WAT, read-out: Percent Inhibition, ST) was 90% and the “Rating, Wild Buckwheat” value (Wild Buckwheat; 0.006 kg/h) was 0 (0-24). For the same molecule, the “Rating, Wild Buckwheat” value (Wild Buckwheat; 0.01 kg/h) was 1 (25-49), the “Rating, Wild Buckwheat” value (Wild Buckwheat; 0.06 kg/h) was 1 (25-49) and the “Rating, Wild Buckwheat” value (Wild Buckwheat; 0.28 kg/h) was 1 (25-49). The “Rating, Wild Buckwheat” value (Wild Buckwheat; 1.12 kg/h) was 2 (50-74), the “Rating, Wild Buckwheat” value (Wild Buckwheat; 5.6 kg/h) was 3 (75-100) and the inhibition at 375 g/ha (Sagittaria trifolia [2]; 2 WAT) was 42%. The inhibition at 375 g/ha (Sagittaria trifolia [2]; 4 WAT) was 8%, the inhibition at 375 g/ha (Sagittaria trifolia [2]; 6 WAT) was 5% and the inhibition at 750 g/ha (Sagittaria trifolia [2]; 2 WAT) was 43%. The inhibition at 750 g/ha (Sagittaria trifolia [2]; 4 WAT) was 12%, the inhibition at 750 g/ha (Sagittaria trifolia [2]; 6 WAT) was 8% and the inhibition at 1500 g/ha (Sagittaria trifolia [2]; 2 WAT) was 30%. For the same molecule, the inhibition at 1500 g/ha (Sagittaria trifolia [2]; 4 WAT) was 8%, the inhibition at 1500 g/ha (Sagittaria trifolia [2]; 6 WAT) was 5% and the inhibition at 3000 g/ha (Sagittaria trifolia [2]; 2 WAT) was 47%. The inhibition at 3000 g/ha (Sagittaria trifolia [2]; 4 WAT) was 22%, the inhibition at 3000 g/ha (Sagittaria trifolia [2]; 6 WAT) was 18% and the “Rating, Downy Brome” value (Downy Brome; Table I, 5.6 kg/h) was 3 (75-100). For the same molecule, the “Rating, Downy Brome” value (Downy Brome; Table I, 11.2 kg/h) was 3 (75-100), the “Rating, Downy Brome” value (Downy Brome; Table II, 0.006 kg/h) was 0 (0-24) and the “Rating, Downy Brome” value (Downy Brome; Table II, 0.01 kg/h) was 1 (25-49). For the same molecule, the “Rating, Downy Brome” value (Downy Brome; Table II, 0.06 kg/h) was 3 (75-100), the “Rating, Downy Brome” value (Downy Brome; Table II, 0.28 kg/h) was 3 (75-100) and the “Rating, Downy Brome” value (Downy Brome; Table II, 1.12 kg/h) was 3 (75-100). For the same molecule, the “Rating, Downy Brome” value (Downy Brome; Table II, 5.6 kg/h) was 3 (75-100), the “Rating, Lambsquarters” value (Lambsquarters; Table I, 5.6 kg/h) was 3 (75-100) and the “Rating, Lambsquarters” value (Lambsquarters; Table I, 11.2 kg/h) was 3 (75-100). For the same molecule, the “Rating, Lambsquarters” value (Lambsquarters; Table II, 0.006 kg/h) was 0 (0-24), the “Rating, Lambsquarters” value (Lambsquarters; Table II, 0.01 kg/h) was 0 (0-24) and the “Rating, Lambsquarters” value (Lambsquarters; Table II, 0.06 kg/h) was 0 (0-24). For the same molecule, the “Rating, Lambsquarters” value (Lambsquarters; Table II, 0.28 kg/h) was 2 (50-74), the “Rating, Lambsquarters” value (Lambsquarters; Table II, 1.12 kg/h) was 3 (75-100) and the “Rating, Lambsquarters” value (Lambsquarters; Table II, 5.6 kg/h) was 3 (75-100). For the same molecule, the inhibition at 280 g/ha (Cyperus serotinus; 0.28 Kg/Ha) was 85%, the inhibition at 560 g/ha (Cyperus serotinus; 0.56 Kg/Ha) was 100% and the inhibition at 1120 g/ha (Cyperus serotinus; 1.12 Kg/Ha) was 100%. The inhibition at 2240 g/ha (Cyperus serotinus; 2.24 Kg/Ha) was 100%, the inhibition at 280 g/ha (Eleocharis kuroguwai; 0.28 Kg/Ha) was 100% and the inhibition at 560 g/ha (Eleocharis kuroguwai; 0.56 Kg/Ha) was 100%. It also gave an inhibition at 1120 g/ha (Eleocharis kuroguwai; 1.12 Kg/Ha) of 100% and an inhibition at 2240 g/ha (Eleocharis kuroguwai; 2.24 Kg/Ha) of 100%.
